From patent publication US20060165612A1, “Compositions for hygienic hand disinfection and disinfectant handwashing” (priority 2005, published 2006) come the findings set out here.

On to `CCCCC(CC)COCC(O)CO` (stereo not shown) [1-(2-ethylhexyl)glycerol ether, 1-(2-Ethylhexyl)glycerol ether], for which the solubility in water is recorded as 0.1 % by weight.
